Measured values reported in paper PMC7585637 (Biomolecules & Therapeutics, 2020).

Target: T1, SIRT1 (Homo sapiens, UniProt Q96EB6)
T1 sequence (Q96EB6 2-747): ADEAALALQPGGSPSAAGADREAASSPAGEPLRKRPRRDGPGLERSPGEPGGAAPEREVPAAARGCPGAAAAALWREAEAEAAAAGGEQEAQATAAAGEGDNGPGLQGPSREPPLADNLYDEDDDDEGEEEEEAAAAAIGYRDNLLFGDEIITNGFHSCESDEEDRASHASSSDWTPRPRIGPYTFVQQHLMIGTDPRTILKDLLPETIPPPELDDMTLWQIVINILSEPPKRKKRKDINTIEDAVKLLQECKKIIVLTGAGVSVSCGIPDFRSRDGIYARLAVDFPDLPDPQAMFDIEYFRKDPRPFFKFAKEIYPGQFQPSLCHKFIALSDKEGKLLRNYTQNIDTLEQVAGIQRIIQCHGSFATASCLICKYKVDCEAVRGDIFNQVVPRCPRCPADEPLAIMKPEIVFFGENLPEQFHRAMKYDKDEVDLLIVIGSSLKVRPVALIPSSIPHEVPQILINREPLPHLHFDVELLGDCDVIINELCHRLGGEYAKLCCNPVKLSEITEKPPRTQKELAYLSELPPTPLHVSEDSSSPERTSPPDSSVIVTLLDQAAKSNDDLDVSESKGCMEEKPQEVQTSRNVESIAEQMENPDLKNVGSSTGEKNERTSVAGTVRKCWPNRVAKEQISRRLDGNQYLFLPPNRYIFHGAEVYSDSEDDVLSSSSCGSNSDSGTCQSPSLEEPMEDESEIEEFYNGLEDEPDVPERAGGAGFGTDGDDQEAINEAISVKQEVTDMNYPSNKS
Assay: Fluor-de-Lys SIRT1 fluorometric deacetylase assay
Assay type: biochemical

## CC(C)(C)c1cc(C=C2C(=O)NC(=S)NC2=O)cc(C(C)(C)C)c1O [MHY2256, 5-(3,5-Di-tert-butyl-4-hydroxybenzylidene)-2-thioxodihydropyrimidine-4,6(1H,5H)-dione]
  IC50: 1020 nM
